{"source": "patent US20100267561A1", "about": "“HERBICIDAL PYRIDAZINONE DERIVATIVES” (priority 2007, published 2010)", "experiment_in_all_cases": "Test B pre-/postemergence plant response", "format_in_all_cases": "in vivo", "key": {"[1]": {"test_system": "common (oilseed) sunflower (Helianthus annuus)", "conditions": "Preemergence", "summary_of_the_method": "(§1)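 Preemergence and postemergence (plants 2-18 cm, 1- to 4-leaf stage) applications used test chemicals in a non-phytotoxic solvent with surfactant. Plants were held in a greenhouse 13 to 15 days, then rated visually against controls on a 0-100 scale (0 no effect, 100 complete control).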"}, "[2]": {"test_system": "wheat (Triticum aestivum)", "conditions": "for plant injury at 31 g/ha / plant injury at 62 g/ha: Triticum aestivum, read-out: Plant response rating, Wheat; for plant injury at 31 g/ha: 31 g ai/ha; for plant injury at 62 g/ha: 62 g ai/ha, 100 complete control", "summary_of_the_method": "as §1"}, "[3]": {"test_system": "giant foxtail (Setaria faberii)", "conditions": "for pest or weed control at 31 g/ha: 31 g ai/ha; for pest or weed control at 62 g/ha: 62 g ai/ha, 100 complete control", "summary_of_the_method": "as §1"}, "[4]": {"test_system": "lambsquarters (Chenopodium album)", "conditions": "for pest or weed control at 31 g/ha / pest or weed control at 62 g/ha: Chenopodium album, read-out: Plant response rating, Lambsquarters; for pest or weed control at 31 g/ha: 31 g ai/ha; for pest or weed control at 62 g/ha: 62 g ai/ha, 100 complete control", "summary_of_the_method": "as §1"}, "[5]": {"test_system": "goosegrass (Eleusine indica)", "conditions": "for pest or weed control at 31 g/ha / pest or weed control at 62 g/ha: Eleusine indica, read-out: Plant response rating, Goosegrass; for pest or weed control at 31 g/ha: 31 g ai/ha; for pest or weed control at 62 g/ha: 62 g ai/ha, 100 complete control", "summary_of_the_method": "as §1"}, "[6]": {"test_system": "wild oat (Avena fatua)", "conditions": "for pest or weed control at 31 g/ha / pest or weed control at 62 g/ha: Avena fatua, read-out: Plant response rating, Oat, Wild; for pest or weed control at 31 g/ha: 31 g ai/ha; for pest or weed control at 62 g/ha: 62 g ai/ha, 100 complete control", "summary_of_the_method": "as §1"}, "[7]": {"test_system": "common ragweed (Ambrosia elation)", "conditions": "for pest or weed control at 31 g/ha / pest or weed control at 62 g/ha: Ambrosia, read-out: Plant response rating, Ragweed; for pest or weed control at 31 g/ha: 31 g ai/ha; for pest or weed control at 62 g/ha: 62 g ai/ha, 100 complete control", "summary_of_the_method": "as §1"}, "[8]": {"conditions": "8 g ai/ha, postemergence, 0-100 scale"}, "[9]": {"conditions": "16 g ai/ha, postemergence, 0-100 scale"}, "[10]": {"conditions": "Preemergence, 8 g ai/ha, scale 0 to 100 (0 no effect, 100 complete control)"}, "[11]": {"conditions": "Preemergence, 16 g ai/ha, scale 0 to 100"}, "[12]": {"conditions": "post-emergence, Postemergence, scale 0 to 100"}, "[13]": {"conditions": "post-emergence, Postemergence, scale 0 to 100, 0 no effect"}, "[14]": {"conditions": "pre-emergence, Preemergence, scale 0 to 100 (0 no effect, 100 complete control)"}, "[15]": {"conditions": "pre-emergence, Preemergence, 0 to 100 scale, 0 no effect"}}, "note": "Like-named read-outs stand apart in the source and are kept apart here."}
{"smiles": "Cc1cc(-c2ccc(Br)cc2)nn1-c1c(O)cn[nH]c1=O", "note": "[Compound 78, 4-[3-(4-bromophenyl)-5-methyl-1H-pyrazol-1-yl]-5-hydroxy-3(2H)-pyridazinone]", "values": [{"measurement": "pest or weed control at 31 g/ha", "setting": "[1]; Helianthus annuus, pre-emergence, 31 g ai/ha, scale 0 to 100 (0 no effect, 100 complete control), read-out: Plant response rating, Sunflower", "value": 0, "unit": "%"}, {"measurement": "pest or weed control at 62 g/ha", "setting": "[1]; Helianthus annuus, pre-emergence, 62 g ai/ha, 0 to 100 scale, 0 no effect, 100 complete control, read-out: Plant response rating, Sunflower", "value": 0, "unit": "%"}, {"measurement": "Sunflower plant response rating", "setting": "[1]; 8 g ai/ha, scale 0 to 100 (0 no effect, 100 complete control)", "value": 0}, {"measurement": "Sunflower plant response rating", "setting": "[1]; 16 g ai/ha, scale 0 to 100", "value": 0}, {"measurement": "Wheat plant response rating", "setting": "[2]; [8]", "value": 50}, {"measurement": "Wheat plant response rating", "setting": "[2]; [9]", "value": 85}, {"measurement": "Wheat plant response rating", "setting": "[2]; [10]", "value": 0}, {"measurement": "Wheat plant response rating", "setting": "[2]; [11]", "value": 80}, {"measurement": "plant injury at 31 g/ha", "setting": "[2]; [12]", "value": 98, "unit": "%"}, {"measurement": "plant injury at 62 g/ha", "setting": "[2]; [13]", "value": 100, "unit": "%"}, {"measurement": "plant injury at 31 g/ha", "setting": "[2]; [14]", "value": 90, "unit": "%"}, {"measurement": "plant injury at 62 g/ha", "setting": "[2]; [15]", "value": 95, "unit": "%"}, {"measurement": "Foxtail, Giant plant response rating", "setting": "[3]; [8]", "value": 98}, {"measurement": "Foxtail, Giant plant response rating", "setting": "[3]; [10]", "value": 98}, {"measurement": "Foxtail, Giant plant response rating", "setting": "[3]; [11]", "value": 100}, {"measurement": "pest or weed control at 16 g/ha", "setting": "[3]; Setaria faberi, post-emergence, Postemergence, 16 g ai/ha, scale 0 to 100, read-out: Plant response rating, Foxtail, Giant", "value": 100, "unit": "%"}, {"measurement": "pest or weed control at 31 g/ha", "setting": "[3]; Setaria faberi, post-emergence, Postemergence, scale 0 to 100, read-out: Plant response rating, Foxtail, Giant", "value": 100, "unit": "%"}, {"measurement": "pest or weed control at 62 g/ha", "setting": "[3]; Setaria faberi, post-emergence, Postemergence, scale 0 to 100, 0 no effect, read-out: Plant response rating, Foxtail, Giant", "value": 100, "unit": "%"}, {"measurement": "pest or weed control at 31 g/ha", "setting": "[3]; Setaria faberi, pre-emergence, Preemergence, scale 0 to 100 (0 no effect, 100 complete control), read-out: Plant response rating, Foxtail, Giant", "value": 100, "unit": "%"}, {"measurement": "pest or weed control at 62 g/ha", "setting": "[3]; Setaria faberi, pre-emergence, Preemergence, 0 to 100 scale, 0 no effect, read-out: Plant response rating, Foxtail, Giant", "value": 100, "unit": "%"}, {"measurement": "Lambsquarters plant response rating", "setting": "[4]; [8]", "value": 0}, {"measurement": "Lambsquarters plant response rating", "setting": "[4]; [9]", "value": 0}, {"measurement": "pest or weed control at 31 g/ha", "setting": "[4]; [12]", "value": 0, "unit": "%"}, {"measurement": "pest or weed control at 62 g/ha", "setting": "[4]; [13]", "value": 0, "unit": "%"}, {"measurement": "pest or weed control at 31 g/ha", "setting": "[4]; [14]", "value": 0, "unit": "%"}, {"measurement": "pest or weed control at 62 g/ha", "setting": "[4]; [15]", "value": 0, "unit": "%"}, {"measurement": "Lambsquarters plant response rating", "setting": "[4]; [10]", "value": 0}, {"measurement": "Lambsquarters plant response rating", "setting": "[4]; [11]", "value": 0}, {"measurement": "Goosegrass plant response rating", "setting": "[5]; [8]", "value": 70}, {"measurement": "Goosegrass plant response rating", "setting": "[5]; [9]", "value": 85}, {"measurement": "pest or weed control at 31 g/ha", "setting": "[5]; [12]", "value": 90, "unit": "%"}, {"measurement": "pest or weed control at 62 g/ha", "setting": "[5]; [13]", "value": 100, "unit": "%"}, {"measurement": "pest or weed control at 31 g/ha", "setting": "[5]; [14]", "value": 100, "unit": "%"}, {"measurement": "pest or weed control at 62 g/ha", "setting": "[5]; [15]", "value": 100, "unit": "%"}, {"measurement": "Goosegrass plant response rating", "setting": "[5]; [10]", "value": 85}, {"measurement": "Goosegrass plant response rating", "setting": "[5]; [11]", "value": 100}, {"measurement": "Oat, Wild plant response rating", "setting": "[6]; [8]", "value": 98}, {"measurement": "Oat, Wild plant response rating", "setting": "[6]; [9]", "value": 100}, {"measurement": "pest or weed control at 31 g/ha", "setting": "[6]; [12]", "value": 100, "unit": "%"}, {"measurement": "pest or weed control at 62 g/ha", "setting": "[6]; [13]", "value": 100, "unit": "%"}, {"measurement": "pest or weed control at 31 g/ha", "setting": "[6]; [14]", "value": 70, "unit": "%"}, {"measurement": "pest or weed control at 62 g/ha", "setting": "[6]; [15]", "value": 85, "unit": "%"}, {"measurement": "Oat, Wild plant response rating", "setting": "[6]; [10]", "value": 30}, {"measurement": "Oat, Wild plant response rating", "setting": "[6]; [11]", "value": 40}, {"measurement": "Ragweed plant response rating", "setting": "[7]; [8]", "value": 0}, {"measurement": "Ragweed plant response rating", "setting": "[7]; [9]", "value": 0}, {"measurement": "pest or weed control at 31 g/ha", "setting": "[7]; [12]", "value": 0, "unit": "%"}, {"measurement": "pest or weed control at 62 g/ha", "setting": "[7]; [13]", "value": 60, "unit": "%"}, {"measurement": "pest or weed control at 31 g/ha", "setting": "[7]; [14]", "value": 0, "unit": "%"}, {"measurement": "pest or weed control at 62 g/ha", "setting": "[7]; [15]", "value": 0, "unit": "%"}, {"measurement": "Ragweed plant response rating", "setting": "[7]; [10]", "value": 0}, {"measurement": "Ragweed plant response rating", "setting": "[7]; [11]", "value": 0}]}
